Measurements as given in patent US20240417370A1, “LIPIDS FOR USE IN LIPID NANOPARTICLE FORMULATIONS” (Acuitas Therapeutics, Inc., priority 2023, published 2024).

Test system: human IgG in mouse serum
Experiment: Immunoglobulin G (IgG) mRNA in vivo evaluation using lipid nanoparticle compositions
Design: species or system mice
Settings: LNP-formulated lipid, tail vein injection, μg IgG/mL serum 24 hours after administration; for Serum IgG @ 0.3 mg/kg: 0.3 mg mRNA/kg; for Serum IgG @ 1.0 mg/kg: 1.0 mg mRNA/kg
Procedure: A lipid of structure (I), DSPC, cholesterol and PEG-lipid are solubilized in ethanol at a molar ratio of 50:10:38.5:1.5 or 47.5:10:40.7:1.8. Lipid nanoparticles (LNP) are prepared at a total lipid to mRNA weight ratio of approximately 10:1 to 40:1. Briefly, the mRNA is diluted to 0.2 mg/mL in 10 to 50 mM citrate buffer, pH 4 to 6 or 10 to 25 mM acetate buffer, pH 4 to 6. Syringe pumps are used to mix the ethanolic lipid solution with the mRNA aqueous solution at a ratio of about 1:5 to 1:3 (vol/vol) with total flow rates above 15 mL/min. The ethanol is then removed, and the external buffer replaced with PBS by dialysis. Finally, the lipid nanoparticles are filtered through a 0.2 µm pore sterile filter.
Studies are performed in 6-8-week-old CD-1/ICR mice (Envigo, Charles River, or Inotiv) according to guidelines established by an institutional animal care committee (ACC) and the Canadian Council on Animal Care (CCAC). Varying doses of mRNA-lipid nanoparticle are systemically administered by tail vein injection and animals euthanized at a specific time point (e.g., 24 hours) post-administration. The whole blood is collected, and the serum subsequentially separated by centrifuging the tubes of the whole blood at 2000×g for 10 minutes at 4° C. and stored at −80° C. until use for analysis.
For immunoglobulin G (IgG) ELISA (Life Diagnostics Human IgG ELISA kit), the serum samples are diluted at 100 to 20,000 folds with 1× diluent solution. 100 μL of diluted serum is dispensed into anti-human IgG coated 96-well plate in duplicate alongside human IgG standards and incubated in a plate shaker at 150 rpm at 25° C. for 45 minutes. The wells are washed 5 times with 1× wash solution using a plate washer (400 μL/well). 100 μL of HRP conjugate is added into each well and incubated in a plate shaker at the same condition above. The wells are washed 5 times again with 1× wash solution using a plate washer (400 μL/well). 100 μL of TMB reagent is added into each well and incubated in a plate shaker at the same condition above. The reaction is stopped by adding 100 μL of Stop solution to each well. The absorbance is read at 450 nm (A450) with a microplate reader. The amount of human IgG in mouse serum is determined by plotting A450 values for the assay standard against human IgG concentration.
Representative compounds of the disclosure shown in Table 2 were formulated using the following molar ratio: 50% cationic lipid/10% distearoylphosphatidylcholine (DSPC)/38.5% Cholesterol/1.5% PEG lipid 2-[2-(ω-methoxy(polyethyleneglycol2000)ethoxy]-N,N-ditetradecylacetamide) or 47.5% cationic lipid/10% DSPC/40.7% Cholesterol/1.8% PEG lipid. Relative activity was determined by measuring luciferase expression in the liver 4 hours following administration via tail vein injection as described in Example 1 or by measuring the amount of human IgG in mouse serum as described in example 2. The activity was compared at a dose of 1.0 or 0.5 or 0.3 mg mRNA/kg and expressed as ng luciferase/g liver measured 4 hours after administration, as described in Example 1 or as μg IgG/mL serum measured 24 hours after administration, as described in Example 2. Compound numbers in Table 2 refer to the compound numbers of Table 1.

CCCCCCCCCCN(CCCCCCCCCC)C(=O)CCCCCCCN(CCCCCCCC(=O)N(CCCCCCCCCC)CCCCCCCCCC)C[C@H]1C[C@@H]1CO (racemic) [(rac)-(1RS, 2RS) I-45, 8,8′-((((1s,2s)-2-(hydroxymethyl)cyclopropyl)methyl)azanediyl)bis(N,N-didecyloctanamide)]
Serum IgG @ 0.3 mg/kg: 10.95 ± 4.31 µg/mL

CCCCCCCCCCN(CCCCCCCCCC)C(=O)CCCCCCCN(CCCCCCCC(=O)N(CCCCCCCCCC)CCCCCCCCCC)C1CCC[C@H]1O (mixture of isomers) [(rac)-(1RS, 2RS) I-48, 8,8′-(((1s,2s)-2-hydroxycyclopentyl)azanediyl)bis(N,N-didecyloctanamide)]
Serum IgG @ 0.3 mg/kg: 32.85 ± 6.90 µg/mL
Serum IgG @ 1.0 mg/kg: 216.8 ± 46.48 µg/mL

CCCCCCCCCCN(CCCCCCCCCC)C(=O)CCCCCCCN(CCCCCCCC(=O)N(CCCCCCCCCC)CCCCCCCCCC)C[C@H]1C[C@H]1CO (racemic) [(rac)-(1RS, 2SR) I-45, 8,8′-((((1s,2r)-2-(hydroxymethyl)cyclopropyl)methyl)azanediyl)bis(N,N-didecyloctanamide)]
Serum IgG @ 0.3 mg/kg: 15.84 ± 3.20 µg/mL

CCCCCCCCCCN(CCCCCCCCCC)C(=O)CCCCCCCN(CCCCCCCC(=O)N(CCCCCCCCCC)CCCCCCCCCC)C1CCCC1O (racemic) [(rac)-(1RS, 2SR) I-48, 8,8′-(((1s,2r)-2-hydroxycyclopentyl)azanediyl)bis(N,N-didecyloctanamide)]
Serum IgG @ 0.3 mg/kg: 43.32 ± 11.04 µg/mL
Serum IgG @ 1.0 mg/kg: 161.75 ± 26.50 µg/mL

CCCCCCCCCCN(CCCCCCCCCC)C(=O)CCCCCCCN(CCCCCCCC(=O)N(CCCCCCCCCC)CCCCCCCCCC)[C@@H]1CC[C@@H](O)C1 (racemic) [(rac)-(1RS, 3RS) I-14, 8,8′-(((1r,3r)-3-hydroxycyclopentyl)azanediyl)bis(N,N-didecyloctanamide); 8,8′-(((1s,3s)-3-hydroxycyclopentyl)azanediyl)bis(N,N-didecyloctanamide)]
Serum IgG @ 0.3 mg/kg: 11.48 ± 1.87 µg/mL
Serum IgG @ 1.0 mg/kg: 45.96 ± 11.03 µg/mL

CCCCCCCCCCN(CCCCCCCCCC)C(=O)CCCCCCCN(CCCCCCCC(=O)N(CCCCCCCCCC)CCCCCCCCCC)[C@@H]1CC[C@H](O)C1 (racemic) [(rac)-(1RS, 3SR) I-14, 8,8′-(((1r,3s)-3-hydroxycyclopentyl)azanediyl)bis(N,N-didecyloctanamide); 8,8′-(((1s,3r)-3-hydroxycyclopentyl)azanediyl)bis(N,N-didecyloctanamide)]
Serum IgG @ 0.3 mg/kg: 15.74 ± 5.71 µg/mL
Serum IgG @ 1.0 mg/kg: 66.16 ± 16.66 µg/mL

CCCCCCCCCCN(CCCCCCCCCC)C(=O)CCCCCCCN(CCCCCCCC(=O)N(CCCCCCCCCC)CCCCCCCCCC)[C@@H]1CCC[C@H]1O [(1R, 2R) I-48, 8,8′-(((1r,2r)-2-hydroxycyclopentyl)azanediyl)bis(N,N-didecyloctanamide)]
Serum IgG @ 0.3 mg/kg: 25.27 ± 7.50 µg/mL
Serum IgG @ 1.0 mg/kg: 92.5 ± 20.18 µg/mL

CCCCCCCCCCN(CCCCCCCCCC)C(=O)CCCCCCCN(CCCCCCCC(=O)N(CCCCCCCCCC)CCCCCCCCCC)[C@@H]1CCC[C@@H]1O [(1R, 2S) I-48, 8,8′-(((1r,2s)-2-hydroxycyclopentyl)azanediyl)bis(N,N-didecyloctanamide)]
Serum IgG @ 0.3 mg/kg: 28.32 ± 8.81 µg/mL

CCCCCCCCCCN(CCCCCCCCCC)C(=O)CCCCCCCN(CCCCCCCC(=O)N(CCCCCCCCCC)CCCCCCCCCC)[C@H]1C[C@H](O)C1 [(1R, 3R) I-5, 8,8′-(((1R,3R)-3-hydroxycyclobutyl)azanediyl)bis(N,N-didecyloctanamide)]
Serum IgG @ 0.3 mg/kg: 44.52 ± 9.89 µg/mL
Serum IgG @ 1.0 mg/kg: 215.61 ± 28.80 µg/mL

CCCCCCCCCCN(CCCCCCCCCC)C(=O)CCCCCCCN(CCCCCCCC(=O)N(CCCCCCCCCC)CCCCCCCCCC)[C@@H]1CCC[C@@H](O)C1 [(1R, 3R) I-17, 8,8′-(((1R,3R)-3-hydroxycyclohexyl)azanediyl)bis(N,N-didecyloctanamide)]
Serum IgG @ 0.3 mg/kg: 27.97 ± 3.37 µg/mL
Serum IgG @ 1.0 mg/kg: 178.14 ± 33.27 µg/mL

CCCCCCCCCCN(CCCCCCCCN(CCCCCCCCN(CCCCCCCCCC)C(=O)CCCCCCCCC)C[C@H]1C[C@H](O)C1)C(=O)CCCCCCCCC [(1R, 3R) I-22, N,N′-(((((1R,3R)-3-hydroxycyclobutyl)methyl)azanediyl)bis(octane-8,1-diyl))bis(N-decyldecanamide)]
Serum IgG @ 0.3 mg/kg: 19.88 ± 2.53 µg/mL

CCCCCCCCCCN(CCCCCCCCCC)C(=O)CCCCCCCN(CCCCCCCC(=O)N(CCCCCCCCCC)CCCCCCCCCC)[C@H]1C[C@H](CO)C1 [(1R, 3R) I-24, 8,8′-(((1R,3R)-3-(hydroxymethyl)cyclobutyl)azanediyl)bis(N,N-didecyloctanamide)]
Serum IgG @ 0.3 mg/kg: 6.93 ± 2.48 µg/mL
Serum IgG @ 1.0 mg/kg: 19.77 ± 5.43 µg/mL

CCCCCCCCCCN(CCCCCCCCCC)C(=O)CCCCCCCN(CCCCCCCC(=O)N(CCCCCCCCCC)CCCCCCCCCC)[C@H]1CC[C@H](O)CC1 [(1R, 4R) I-9, 8,8′-(((1R,4R)-4-hydroxycyclohexyl)azanediyl)bis(N,N-didecyloctanamide)]
Serum IgG @ 0.3 mg/kg: 45.52 ± 6.25 µg/mL
Serum IgG @ 1.0 mg/kg: 204.57 ± 48.15 µg/mL

CCCCCCCCCCN(CCCCCCCCCC)C(=O)CCCCCCCN(CCCCCCCC(=O)N(CCCCCCCCCC)CCCCCCCCCC)[C@H]1CC[C@H](CO)CC1 [(1R, 4R) I-23, 8,8′-(((1R,4R)-4-(hydroxymethyl)cyclohexyl)azanediyl)bis(N,N-didecyloctanamide)]
Serum IgG @ 0.3 mg/kg: 5.15 ± 1.83 µg/mL
Serum IgG @ 1.0 mg/kg: 37.79 ± 6.41 µg/mL

CCCCCCCCCCN(CCCCCCCCCC)C(=O)CCCCCCCN(CCCCCCCC(=O)N(CCCCCCCCCC)CCCCCCCCCC)[C@H]1CC[C@](C)(O)CC1 [(1R, 4R) I-25, 8,8′-(((1R,4R)-4-hydroxy-4-methylcyclohexyl)azanediyl)bis(N,N-didecyloctanamide)]
Serum IgG @ 0.3 mg/kg: 14.03 ± 2.71 µg/mL
Serum IgG @ 1.0 mg/kg: 105.77 ± 19.44 µg/mL

CCCCCCCCCCN(CCCCCCCCN(CCCCCCCC(=O)N(CCCCCCCCCC)CCCCCCCCCC)[C@H]1CC[C@H](O)CC1)C(=O)CCCCCCCCC [(1R, 4R) I-47, N-decyl-N-(8-((8-(didecylamino)-8-oxooctyl)((1r,4r)-4-hydroxycyclohexyl)amino)octyl)decanamide]
Serum IgG @ 0.3 mg/kg: 16.24 ± 2.93 µg/mL

CCCCCCCCCCN(CCCCCCCCCC)C(=O)C(F)CCCCCCN(CCCCCCC(F)C(=O)N(CCCCCCCCCC)CCCCCCCCCC)[C@H]1CC[C@H](O)CC1 (stereo partly drawn) [(1R, 4R) I-49, 8,8′-(((1r,4r)-4-hydroxycyclohexyl)azanediyl)bis(N,N-didecyl-2-fluorooctanamide)]
Serum IgG @ 0.3 mg/kg: 28.94 ± 13.21 µg/mL
Serum IgG @ 1.0 mg/kg: 161.09 ± 11.20 µg/mL

CCCCCCCCCCN(CCCCCCCCCC)C(=O)CCCCCCCN(CCCCCCCC(=O)N(CCCCCCCCCC)CCCCCCCCCC)[C@H]1CCC[C@H]1O [(1S, 2R) I-15, 8,8′-(((1S,2R)-2-hydroxycyclopentyl)azanediyl)bis(N,N-didecyloctanamide)]
Serum IgG @ 0.3 mg/kg: 33.97 ± 18.40 µg/mL
Serum IgG @ 1.0 mg/kg: 225.79 ± 54.78 µg/mL

CCCCCCCCCCN(CCCCCCCCCC)C(=O)CCCCCCCN(CCCCCCCC(=O)N(CCCCCCCCCC)CCCCCCCCCC)[C@H]1CCCC[C@H]1O [(1S, 2R) I-16, 8,8′-(((1S,2R)-2-hydroxycyclohexyl)azanediyl)bis(N,N-didecyloctanamide)]
Serum IgG @ 0.3 mg/kg: 19.42 ± 7.21 µg/mL
Serum IgG @ 1.0 mg/kg: 88.40 ± 26.36 µg/mL

CCCCCCCCCCN(CCCCCCCCCC)C(=O)C(F)CCCCCCN(CCCCCCC(F)C(=O)N(CCCCCCCCCC)CCCCCCCCCC)CC[C@H]1C[C@@H](O)C1 (stereo partly drawn) [(1S, 3R) I-19, 8,8′-((2-((1S,3R)-3-hydroxycyclobutyl)ethyl)azanediyl)bis(N,N-didecyl-2-fluorooctanamide)]
Serum IgG @ 0.3 mg/kg: 30.68 ± 8.05 µg/mL
Serum IgG @ 1.0 mg/kg: 267.70 ± 45.90 µg/mL
